The values below come from patent US7902354B2, “Lapachone compounds and methods of use thereof” (ArQule, Inc., priority 2006, dated 2011).

Common to all, as to format: cell-based
The subject of test [1] is A549 human lung carcinoma cells. Briefly: MTS cell viability assay, A549 human lung carcinoma cells. As to conditions: A549, 4 h compound incubation, MTS, read-out: IC50 Values, Cancerous Cells, Lung A549.
The subject of test [2] is DLD-1 human colon carcinoma cells. Nature of the test: MTS cell viability assay, DLD-1 human colon carcinoma cells. To be noted: DLD-1, 4 h compound incubation, MTS, read-out: IC50 Values, Cancerous Cells, Colon DLD-1. On the technique in general: Tetrazolium dyes change colour on reduction, which living cells bring about.
Test [3] deals with DU-145 human prostate carcinoma cells. Nature of the test: MTS cell viability assay, DU-145 human prostate carcinoma cells. As to conditions: DU-145, 4 h compound incubation, MTS, read-out: IC50 Values, Cancerous Cells, Prostate DU-145.
Test [4] relates to K-562 human leukemia cells. Nature of the test: MTS cell viability assay, K-562 human leukemia cells. As to conditions: K562, K-562, 4 h compound incubation, MTS, read-out: IC50 Values, Cancerous Cells, Leukemia K-562.
The test system of test [5] is PACA-2 human pancreatic carcinoma cells. Briefly: MTS cell viability assay, PACA-2 human pancreatic carcinoma cells. As to conditions: PACA-2, 4 h compound incubation, MTS, read-out: IC50 Values, Cancerous Cells, Pancreas PACA-2.
Test [6] deals with NCM-460 normal colon epithelial cells. Nature of the test: MTS cell viability assay, NCM-460 normal colon epithelial cells. As to conditions: for IC50: Homo sapiens, NCM460, NCM-460, 4 h compound incubation, MTS, read-out: IC50 Values, Normal Cells, Colon NCM-460; for Fold Selectivity (NCM-460/DLD1): ratio of IC50 NCM-460 / DLD1.

Broadly, the IC50 is the midpoint of a concentration-inhibition curve.

Regarding `C=CC(C)(O)CN1CCC2(CC1)CSC1=C(O2)c2ccccc2C(=O)C1=O` (centres unmarked) [Compound 159, 1′-(2-hydroxy-2-methylbut-3-en-1-yl)spiro[naphtho[1,2-b][1,4]oxathiine-2,4′-piperidine]-5,6-dione], the IC50 stood at 14.3 µM in test [1]; 4.47 µM in test [2]; 5.03 µM in test [3]; 4.13 µM in test [4]; 4.03 µM in test [5]; 10.2 µM in test [6]. In addition, the “Fold Selectivity (NCM-460/DLD1)” value in test [6] was 2.3.
Turning to `O=C1C(=O)c2ccccc2C2=C1SCC1(CCN(CC(O)CC(F)(F)F)CC1)O2` (centres unmarked) [Compound 160, 1′-(4,4,4-trifluoro-2-hydroxybutyl)spiro[naphtho[1,2-b][1,4]oxathiine-2,4′-piperidine]-5,6-dione], the half-inhibitory concentration (IC50) in test [1] is 6.72 µM; in test [2], 1.69 µM; in test [3], 3.92 µM; in test [4], 1.53 µM; in test [5] it was 1.55 µM; in test [6], 5.56 µM. Also, the “Fold Selectivity (NCM-460/DLD1)” value in test [6] is given as 3.3.
As for `CCCCC(O)CN1CCC2(CC1)CSC1=C(O2)c2ccccc2C(=O)C1=O` (centres unmarked) [Compound 162, 1′-(2-hydroxyhexyl)spiro[naphtho[2-b][1,4]oxathiine-2,4′-piperidine]-5,6-dione], the IC50 in test [1] worked out at 6.95 µM; in test [2], 1.36 µM; in test [3], 2.77 µM; in test [4], 1.5 µM; in test [5], 1.45 µM; in test [6] it was 2.8 µM. Further, the “Fold Selectivity (NCM-460/DLD1)” value in test [6] came out at 2.1.
For `O=C1C(=O)c2ccccc2C2=C1SCC1(CCN(CC(O)COc3ccc(F)cc3)CC1)O2` (centres unmarked) [Compound 164, 1′-[3-(4-fluorophenoxy)-2-hydroxypropyl]spiro[naphtho[1,2-b][1,4]oxathiine-2,4′-piperidine]-5,6-dione], the IC50 in test [1] came out at 9.02 µM; in test [2], 1.52 µM; in test [3], 2.88 µM; in test [4] it was 3.12 µM; in test [5], 1.42 µM; in test [6] it was 9.74 µM. Moreover, the “Fold Selectivity (NCM-460/DLD1)” value in test [6] is listed as 6.4.
Take `O=C1C(=O)c2ccccc2C2=C1SCC1(CCN(CC(O)COCc3ccco3)CC1)O2` (centres unmarked) [Compound 165, 1′-[3-(2-furylmethoxy)-2-hydroxypropyl]spiro[naphtho[2-b][1,4]oxathiine-2,4′-piperidine]-5,6-dione]: the IC50 in test [1] is 6.73 µM; in test [2], 1.92 µM; in test [3], 3.08 µM; in test [4] it was 2.31 µM; in test [5] it was 1.44 µM; in test [6], 4.71 µM. Besides, the “Fold Selectivity (NCM-460/DLD1)” value in test [6] came out at 2.5.
Regarding `O=C1C(=O)c2ccccc2C2=C1SCC1(CCN(CC(O)CN3CCOCC3)CC1)O2` (centres unmarked) [Compound 166, 1′-(2-hydroxy-3-morpholin-4-ylpropyl)spiro[naphtho[1,2-b][1,4]oxathiine-2,4′-piperidine]-5,6-dione], the concentration for half-maximal inhibition (IC50) in test [1] turned out to be 13.6 µM; in test [2], 3.7 µM; in test [3], 4.16 µM; in test [4], 2.26 µM; in test [5], 1.47 µM; in test [6] it was 8.69 µM. Moreover, the “Fold Selectivity (NCM-460/DLD1)” value in test [6] is reported as 2.3.
Take `O=C1C(=O)c2ccccc2C2=C1SCC1(CCN(CC(O)c3ccccc3)CC1)O2` (centres unmarked) [Compound 167, 1′-(2-hydroxy-2-phenylethyl)spiro[naphtho[1,2-b][1,4]oxathiine-2,4′-piperidine]-5,6-dione]: the IC50 in test [1] was 7.56 µM; in test [2] it was 1.35 µM; in test [3] it was 2.76 µM; in test [4], 1.53 µM; in test [5], 1.26 µM; in test [6], 3.68 µM. Besides, the “Fold Selectivity (NCM-460/DLD1)” value in test [6] was determined as 2.7.
On to `CCc1ccc(OCC(O)CN2CCC3(CC2)CSC2=C(O3)c3ccccc3C(=O)C2=O)cc1` (centres unmarked) [Compound 170, 1′-[3-(4-ethylphenoxy)-2-hydroxypropyl]spiro[naphtho[1,2-b][1,4]oxathiine-2,4′-piperidine]-5,6-dione], for which the half-inhibitory concentration (IC50) was 4.69 µM in test [1]; 1.49 µM in test [2]; 1.42 µM in test [3]; 5.31 µM in test [4]; 1.37 µM in test [5]; 14 µM in test [6]. Further, the “Fold Selectivity (NCM-460/DLD1)” value in test [6] was determined as 9.4.
Regarding `O=C1C(=O)c2ccccc2C2=C1SCC1(CCN(CC(O)COCc3ccccc3)CC1)O2` (centres unmarked) [Compound 171, 1′-[3-(benzyloxy)-2-hydroxypropyl]spiro[naphtho[12-b][1,4]oxathiine-2,4′-piperidine]-5,6-dione], the IC50 in test [1] worked out at 6.55 µM; in test [2], 1.34 µM; in test [3] it was 3.22 µM; in test [4], 3.6 µM; in test [5], 1.46 µM; in test [6], 9.69 µM. In addition, the “Fold Selectivity (NCM-460/DLD1)” value in test [6] turned out to be 7.2.
For `O=C1C(=O)c2ccccc2C2=C1SCC1(CCN(CC(O)COc3ccccc3Cl)CC1)O2` (centres unmarked) [Compound 172, 1′-[3-(2-chlorophenoxy)-2-hydroxypropyl]spiro[naphtho[1,2-b][1,4]oxathiine-2,4′-piperidine]-5,6-dione], the half-inhibitory concentration (IC50) worked out at 6.16 µM in test [1]; 1.36 µM in test [2]; 1.55 µM in test [3]; 1.48 µM in test [4]; 1.09 µM in test [5]; 5.53 µM in test [6]. Also, in test [6], the “Fold Selectivity (NCM-460/DLD1)” value was 4.1.
With `Cc1ccccc1OCC(O)CN1CCC2(CC1)CSC1=C(O2)c2ccccc2C(=O)C1=O` (centres unmarked) [Compound 173, 1′-[2-hydroxy-3-(2-methylphenoxy)propyl]spiro[naphtho[1,2-b][1,4]oxathiine-2,4′-piperidine]-5,6-dione], the IC50 in test [1] was 7 µM; in test [2], 1.49 µM; in test [3], 2.92 µM; in test [4] it was 4.1 µM; in test [5], 1.42 µM; in test [6], 10.3 µM. In addition, in test [6], the “Fold Selectivity (NCM-460/DLD1)” value was found to be 6.9.
Take `CC(C)COCC(O)CN1CCC2(CC1)CSC1=C(O2)c2ccccc2C(=O)C1=O` (centres unmarked) [Compound 174, 1′-(2-hydroxy-3-isobutoxypropyl)spiro[naphtho[1,2-b][1,4]oxathiine-2,4′-piperidine]-5,6-dione]: the concentration for half-maximal inhibition (IC50) was 6.29 µM in test [1]; 1.3 µM in test [2]; 1.55 µM in test [3]; 1.61 µM in test [4]; 1.25 µM in test [5]; 3.2 µM in test [6]. Further, the “Fold Selectivity (NCM-460/DLD1)” value in test [6] is 2.5.
Consider `COc1ccc(OCC(O)CN2CCC3(CC2)CSC2=C(O3)c3ccccc3C(=O)C2=O)cc1` (centres unmarked) [Compound 175, 1′-[2-hydroxy-3-(4-methoxyphenoxy)propyl]spiro[naphtho[1,2-b][1,4]oxathiine-2,4′-piperidine]-5,6-dione], for which the half-maximal inhibitory concentration (IC50) worked out at 7.29 µM in test [1]; 1.42 µM in test [2]; 1.59 µM in test [3]; 3.27 µM in test [4]; 1.39 µM in test [5]; 6.12 µM in test [6]. In test [6], the “Fold Selectivity (NCM-460/DLD1)” value is on record as 4.3.
With `O=C1C(=O)c2ccccc2C2=C1SCC1(CCN(CC(O)COc3ccc(Cl)cc3)CC1)O2` (centres unmarked) [Compound 176, 1′-[3-(4-chlorophenoxy)-2-hydroxypropyl]spiro[naphtho[1,2-b][1,4]oxathiine-2,4′-piperidine]-5,6-dione], the concentration for half-maximal inhibition (IC50) in test [1] came to 5.14 µM; in test [2] it was 2.4 µM; in test [3] it was 2.43 µM; in test [4] it was 4.76 µM; in test [5] it was 3 µM; in test [6], 11 µM. Besides, the “Fold Selectivity (NCM-460/DLD1)” value in test [6] is 4.6.
Take `CC(O)(CN1CCC2(CC1)CSC1=C(O2)c2ccccc2C(=O)C1=O)c1ccccc1` (centres unmarked) [Compound 177, 1′-(2-hydroxy-2-phenylpropyl)spiro[naphtho[1,2-b][1,4]oxathiine-2,4′-piperidine]-5,6-dione]: the half-inhibitory concentration (IC50) came out at 14.9 µM in test [1]; 6.22 µM in test [2]; 4.55 µM in test [3]; 8.99 µM in test [4]; 4.18 µM in test [5]; 20.5 µM in test [6]. For the same compound, the “Fold Selectivity (NCM-460/DLD1)” value in test [6] is 3.3.
With `O=C1C(=O)c2ccccc2C2=C1SCC1(CCN(c3cnccn3)CC1)O2` [Compound 229, 1′-pyrazin-2-ylspiro[naphtho[1,2-b][1,4]oxathiine-2,4′-piperidine]-5,6-dione], the IC50 was found to be 22.6 µM in test [1]; 4.27 µM in test [2]; 4.63 µM in test [3]; 4.14 µM in test [4]; 4.33 µM in test [5]; 12.8 µM in test [6]. Besides, the “Fold Selectivity (NCM-460/DLD1)” value in test [6] is 3.0.
As for `O=C1C(=O)c2ccccc2C2=C1SCC1(CCN(C(=O)C3CCCCC3C(=O)O)CC1)O2` (centres unmarked) [Compound 231, 2-[(5,6-dioxo-5,6-dihydro-1′H-spiro[naphtho[1.2-b][1,4]oxathiine-2,4′-piperidin]-1′-yl)carbonyl]cyclohexanecarboxylic acid], the IC50 in test [1] came to 27.9 µM; in test [2], 9.27 µM; in test [3], 12 µM; in test [4], 10.6 µM; in test [5], 4.84 µM; in test [6], 12.3 µM. Further, in test [6], the “Fold Selectivity (NCM-460/DLD1)” value came to 1.3.
